Assay results reported in patent US4904666A, “Pyrazolo(3,4-d)pyrimidine compounds, compositions and method of use” (Boehringer Mannheim GmbH, priority 1987, dated 1990).

tested on: passively sensitized strip of pulmonary parenchyma (guinea pig); assay: inhibition of antigen-induced constriction of passively sensitized guinea pig pulmonary parenchyma strips in vitro (organ bath); type: cell-based, guinea pig (Pirbright-White); conditions: Cavia porcellus, 20 min; Superfusion; Concentration 10/μM (so in the source); test substance preincubated 20 minutes at 37° C., then ovalbumin constriction; percentage reduction of constriction amplitude vs untreated control constrictions
Description: Activity of the inventive compounds was shown by the following testing in vitro. […] The method employed was as described herewith:
Pirbright-White guinea pigs were stunned by a blow to the neck and bled. The lungs were flushed largely free of blood in situ with Krebs' buffer, pH 7.4.
Then the lung was removed, cut into strips (approx. 20×4×4 mm) and the strips were passively sensitized for one hour at room temperature with a 1:50 dilution of a homologous anti-ovalbumin antiserum and then washed once with Krebs' buffer.
The antiserum had previously been produced as described by Davies et al., (Quantitative studies on anaphylaxis in guinea pigs passively sensitized with homologous antibody. Inter. Arch. Allergy 41, 648-654 (1971)) in guinea pigs of the same strain by repeated injection of ovalbumin (2×crystallized) with the addition of complete Freund's adjuvant (Until it was used, the antiserum was stored undiluted at -18° C.).
Then the lung strips were fixed singly with one end to the bottom of 10-milliliter organ baths, and with the upper end to isometric measuring devices for the recording of the constrictions of the lung strips through an amplifier on a plotter. The tenseron was adjusted to 1.2 g weight.
Then the baths were filled with Krebs' buffer and continually gassed at 37° C. with O2 (95%) and CO2 (5%).
After a 30-minute equilibration phase, histamine control spasms were produced in order to establish the reactivity of the lung specimens, washed, then the test substance was preincubated for 20 minutes at 37° C., and the ovalbumin constriction was produced.
The inhibiting action of the compounds according to the invention was expressed as percentage reduction of the constriction amplitude of the "specimens with the test substance" in proportion to the "untreated control constrictions."

Row | SMILES | inhibition at 10 µM [%]
1 | COc1cccc(CN(c2ncnc3[nH]ncc23)C2CCCC2)c1 [Example 2d, 4-[N--(3-methoxybenzyl)-cyclopentylamino]-1H--pyrazolo[3,4-d]pyrimidine] | 36
2 | CCOC(=O)c1cccc(CN(c2ncnc3[nH]ncc23)C2CCCC2)c1 [Example 2g, 4-[N--(3-ethoxycarbonylbenzyl)-cyclopentylamino]-1H--pyrazolo[3,4-d]pyrimidine] | 40
3 | N#Cc1cccc(CN(c2ncnc3[nH]ncc23)C2CCCC2)c1 [Example 2i, 4-[N--(3-cyanobenzyl)-cyclopentylamino]-1H--pyrazolo[3,4-d]pyrimidine] | 35
4 | Clc1ccc(Cl)c(CN(c2ncnc3[nH]ncc23)C2CCCC2)c1 [Example 2j, 4-[N--(2,5-dichlorobenzyl)-cyclopentylamino] -1H--pyrazolo[3,4-d]pyrimidine] | 29
5 | Clc1ccc(CN(c2ncnc3[nH]ncc23)C2CCCC2)cc1Cl [Example 2k, 4-[N--(3,4-dichlorobenzyl)-cyclopentylamino]-1H--pyrazolo[3,4-d]pyrimidine] | 32
6 | Cc1ccc(Cl)cc1CN(c1ncnc2[nH]ncc12)C1CCCC1 [Example 2l, 4-[N--(5-chloro-2-methylbenzyl)-cyclopentylamino]-1H--pyrazolo[3,4-d]pyrimidine] | 32
7 | Cc1ccc(C)c(CN(c2ncnc3[nH]ncc23)C2CCCC2)c1 [Example 2n, 4-[N--(2,5-dimethylbenzyl)-cyclopentylamino]-1H--pyrazolo[3,4-d]pyrimidine] | 32
8 | c1coc(CN(c2ncnc3[nH]ncc23)C2CCCC2)c1 [Example 2o, 4-[N--(2-furylmethyl)-cyclopentylamino]-1H--pyrazolo[3,4-d]pyrimidine] | 39
9 | c1csc(CN(c2ncnc3[nH]ncc23)C2CCCC2)c1 [Example 2p, 4-[N--(thiophen-2-ylmethyl)-cyclopentylamino]-1H--pyrazolo[3,4-d]pyrimidine] | 37
10 | OCC(O)Cn1ncc2c(N(Cc3cccc(C(F)(F)F)c3)C3CCCC3)ncnc21 (stereo not shown) [Example 4b, 4-[N--(3-trifluoromethylbenzyl)-cyclopentylamino]-1-(2,3-dihydroxypropyl)-1H--pyrazolo[3,4-d]pyrimidine] | 36
